Paper PMC6396024, “Artemin and an Artemin-Derived Peptide, Artefin, Induce Neuronal Survival, and Differentiation Through Ret and NCAM” (Frontiers in Molecular Neuroscience, 2019)
Bridge positions count the residues as written; N and C are the ends. Ends that are not written are not given here. I, II: the chains in the order shown.

B1: recombinant human Artemin (ARTN) (ligand, UniProt Q5T4W7 108-220, looked up)
chain: AGGPGSRARAAGARGCRLRSQLVPVRALGLGHRSDELVRFRFCSGSCRRARSPHDLSLASLLGAGALRPPPGSRPVSQPCCRPTRYEAVSFMDVNSTWRTVDRLSATACGCLG
notes: Artemin (ARTN), human, UniProt D3DPX9; source: bought: R&D Systems

Experiments:
Type in all cases: cell-based, Wistar rat
[1] = test system: cerebellar granule neurons (CGNs); test: Neurite outgrowth assay in CGNs; conditions: 24 h; for maximum level of neurite outgrowth: untreated control = 100%, mean of four independent experiments; for neurite outgrowth, single agent in competition assay: ARTN 2.1 nM alone or artefin 4.2 μM alone, paired t-test versus control; for overall neuritogenic effect: ARTN 0.013–2.1 nM, artefin 0.16–37.9 μM, one-way ANOVA
Method: (§1) Cerebellar granule neurons (CGNs) were prepared from 7-day-old Wistar rat pups (Charles River Laboratories, Sulzfeld, Germany) as previously described ([Schousboe et al., 1989]). Briefly, pups were decapitated, and the cerebellum was removed and cleared from blood vessels and meninges in ice-cold modified Krebs-Ringer buffer. The cerebellum was dissociated by chopping and trypsinization. Cells were washed in Krebs-Ringer buffer containing DNAse I (Sigma, St. Louis, MO, United States) and soybean trypsin inhibitor (Sigma) to stop trypsinization, and the remaining tissue pieces were pelleted by centrifugation. Cells were then washed in Krebs-Ringer buffer containing Ca^2+ and Mg^2+ and re-suspended in appropriate Neurobasal^TM medium (Invitrogen, Taastrup, Denmark) with supplements depending on the experiment.
(§2) Cerebellar granule neurons CGNs were re-suspended in Neurobasal^TM medium supplemented with 2% (v/v) B27, 0.5% (v/v) glutamax, 100 U/ml penicillin, 100 μg/ml streptomycin, 0.4% (w/v) BSA, and 20 mM HEPES and were seeded in 8-well LabTek Permanox chamber slides (Nunc) at a density of 1 × 10^4 cells/cm^2. Various concentrations of ARTN, artefin, scrambled artefin, or reversed artefin were added to neurons immediately after seeding. For the RET inhibition assay, the inhibitory goat anti-mouse RET antibody (4.1 μg/ml; R&D systems, Abingdon, United Kingdom) or control goat IgG (4.1 μg/ml; Santa Cruz Biotechnology, Dallas, TX, United States) were added to neurons 1 h before stimulation with ARTN (0.042 nM) […]. For the competition assay between growth factor and mimetic peptide, a combination of ARTN (2.1 nM) and artefin (4.2 μM) was added to the cells immediately after seeding. To inhibit Fibroblast growth factor receptor (FGFR) pharmacologically, inhibitor of FGFR, SU5402 (Sigma), was added to the growth medium in serial dilutions of 20, 40, and 80 μM immediately after plating of CGNs, followed by addition of either P2-d (8 μg/ml), ARTN (0.21 nM), or artefin (1.4 μM) 1 h after the plating.
To estimate neurite outgrowth, neurons were fixated 24 h after stimulation and stained with rabbit anti-growth-associated-protein-43 (GAP-43) antibody (Chemicon International, Inc., Temecula, CA, United States) or anti-GFP antibody (for transfection experiment) overnight at 4°C followed by incubation with secondary Alexa-conjugated goat anti-rabbit antibodies (Invitrogen, Taastrup, Denmark). In case of experiments with plasmid transfection, the transfection efficiency was ca. 20% of total cells and the neurite outgrowth was evaluated only in GFP-positive, i.e., transfected, cells. For representative pictures, cells were additionally co-stained with Hoechst 33258.
Computer-assisted fluorescent microscopy was performed using a Nikon Diaphot 300 inverted microscope (Nikon) equipped with a Nikon Plan 20× objective and coupled to a video camera (Grundig Electronics, Germany). For each condition in each experiment, including the experiment with transfections, images of approximately 200 cells were recorded in systematic series of fields of view, and neurite outgrowth was quantified using a stereological approach as previously described ([Rønn et al., 2000]).
FIGURE 3 Neurite outgrowth induced by ARTN (A), artefin-dendrimer (B), and artefin-monomer (C) in CGNs. Cells were stimulated with ARTN (0.013, 0.042, 0.13, 0.42, and 2.1 nM) or artefin (0.16, 0.47, 1.4, 4.2, 12.6, and 37.9 μM) for 24 h. For the unstimulated control, the absolute length of neurites was 11.47 ± 1.5 μm. Results from four independent experiments are expressed as percentage of untreated control set to 100% and presented as mean ± SEM. The mean neurite outgrowth lengths were compared using one-way ANOVA for repeated measurements. The effect of individual concentrations of ARTN and artefin was compared to control using one-way ANOVA with Dunnett’s post-hoc test, ^∗p < 0.05; ^∗∗p < 0.01. […]

[2] = test system: FGFR; cerebellar granule neurons (CGNs); test: Neurite outgrowth in CGNs with FGFR-inhibitor SU5402; conditions: SU5402 20, 40, 80 μM; ARTN 0.21 nM or artefin 1.4 μM; p < 0.01
Method: as §1
as §2, with “To inhibit Fibroblast growth factor receptor (FGFR) pharmacologically, inhibitor of FGFR, SU5402 (Sigma), was added to the growth medium in serial dilutions of 20, 40, and 80 μM immediately after plating of CGNs, followed by addition of either P2-d (8 μg/ml), ARTN (0.21 nM), or artefin (1.4 μM) 1 h after the plating.” left out
(§3) To estimate neurite outgrowth, neurons were fixated 24 h after stimulation and stained with rabbit anti-growth-associated-protein-43 (GAP-43) antibody (Chemicon International, Inc., Temecula, CA, United States) or anti-GFP antibody (for transfection experiment) overnight at 4°C followed by incubation with secondary Alexa-conjugated goat anti-rabbit antibodies (Invitrogen, Taastrup, Denmark). In case of experiments with plasmid transfection, the transfection efficiency was ca. 20% of total cells and the neurite outgrowth was evaluated only in GFP-positive, i.e., transfected, cells. […]
Computer-assisted fluorescent microscopy was performed using a Nikon Diaphot 300 inverted microscope (Nikon) equipped with a Nikon Plan 20× objective and coupled to a video camera (Grundig Electronics, Germany). For each condition in each experiment, including the experiment with transfections, images of approximately 200 cells were recorded in systematic series of fields of view, and neurite outgrowth was quantified using a stereological approach as previously described ([Rønn et al., 2000]). […]

[3] = test system: FGFR; cerebellar granule neurons (CGNs); test: Neurite outgrowth in CGNs transfected with dominant negative FGFR (dnFGFR); conditions: 24 h, ARTN 0.21 nM or artefin 1.4 μM
Method: as §1, with “Cells were then washed in Krebs-Ringer buffer containing Ca^2+ and Mg^2+ and re-suspended in appropriate Neurobasal^TM medium (Invitrogen, Taastrup, Denmark) with supplements depending on the experiment.” left out
as §3

Row | Molecule | concentration of maximum neurite outgrowth ([1]; artefin as dendrimer) [µM] | neurite outgrowth compared to ARTN ([1]; artefin dendrimer, higher length of neurites) | maximum level of neurite outgrowth ([1]; artefin as dendrimer) | neurite outgrowth, single agent in competition assay [1] | overall neuritogenic effect [1] | neurite outgrowth effect of artefin in the presence of ARTN ([1]; artefin 4.2 μM co-incubated with ARTN 2.1 nM, p < 0.001 versus artefin alone) | neurite outgrowth, sequence specificity ([1]; tetramers, 4.2 μM, paired t-test versus untreated control) | neurite outgrowth effect in the presence of SU5402 [2] | neurite outgrowth effect in CGNs expressing dnFGFR [3] | concentration of maximum neurite outgrowth [1] [µM] | dose-response of neurite outgrowth ([1]; 0.013–2.1 nM)
1 | I: RSPHDLSLASLLGAGKK-NH2 / II: RSPHDLSLASLLGAGK / III: RSPHDLSLASLLGAG / IV: RSPHDLSLASLLGAG (amide I:16-IV:C, I:17-II:C, II:16-III:C; C-terminus assumed) [artefin] | 4.2 | more effective (higher length of neurites) than ARTN | 404 % of control | significant increase in neurite outgrowth (p < 0.001) | statistically significant (F = 9.723, p < 0.0001) | eliminated | statistically significant increase in neurite length when compared to the control condition (p < 0.01) | dose-dependently inhibited the neurite outgrowth effect of artefin | abolished in CGNs expressing dnFGFR |  | 
2 | B1 |  |  | 210 % of control | equivalent to that of the control condition | statistically significant (F = 5.069, p < 0.01) |  |  | completely abolished in the presence of serially diluted inhibitor | abolished in CGNs expressing dnFGFR | 4.2e-05 | bell-shaped dose-response manner
